The source of these data is patent US9512073B2, “Amino acid-, peptide-and polypeptide-lipids, isomers, compositions, and uses thereof” (Massachusetts Institute of Technology, priority 2011, dated 2016).

Assay [1] deals with firefly luciferase. In words: In vitro siRNA transfection assay (luciferase silencing) in HeLa cells with apolipoproteins. Type of assay: cell-based. To be noted: for order of silencing effects: with addition of ApoE3 (ApoE), siRNA 50 ng/well. As for the experimental part:
HeLa cells, stably expressing firefly luciferase and Renilla luciferase, were seeded (14,000 cells/well) into each well of an opaque white 96-well plate (Corning-Costar) and allowed to attach overnight in growth medium. Growth medium was composed of 90% phenol red-free DMEM, 10% FBS, 100 units/ml penicillin, […] streptomycin (Invitrogen). Cells were transfected with LNPs formulated with anti-luciferase siRNA by addition of formulated particles to growth medium. Transfections were performed in quadruplicate. Cells were allowed to grow for 1 d at 37° C., 5% CO2 and were then analyzed for luciferase expression. Control experiments were performed with Lipofectamine 2000, as described by the vendor (Invitrogen). Firefly and Renilla luciferase expression was analyzed using Dual-Glo assay kits (Promega). Luminescence was measured using a Victor3 luminometer (Perkin Elmer). Effects of apolipoproteins were evaluated through an in vitro siRNA transfection assay in HeLa cells as previously reported. HeLa cells, stably expressing firefly luciferase and Renilla luciferase were seeded in an opaque white 96-well plate (Corning-Costar) overnight. Cells were transfected by cKK-E12 formulated with 50 ng of firefly-specific siLuc in quadruplicate. Apolipoproteins (Fitzgerald Industries) were incubated with cKK-E12 formulations for 5 mins before adding to cells. After 24 h incubation at 37° C., 5% CO2, cells were analyzed for luciferase expression using Dual-Glo assay kits (Promega). For visualization of cell uptake, cKK-E12 was formulated with an Alexa-Fluor siRNA and incubated with Hela cells for 3 h. Cells were then fixed in 4% paraformaldehyde, permeabilized with 0.1% saponin and stained with Hoescht. All images were acquired using an Opera spinning disc confocal system (Perkin Elmer), and the data was analyzed using Acapella Software (Perkin Elmer).

Assay [2] has as its system Factor VII. In words: In vivo Factor VII gene silencing in mice. Also on record: species or system C57BL/6 mice. As for the experimental part:
APPL, distearoyl phosphatidylcholine (DSPC), cholesterol and mPEG2000-DMG were solubilized in 90% ethanol at a molar ratio of 50:10:38.5:1.5. The siRNA (against firefly luciferase or fVII) was solubilized in 10 mM citrate, pH 3 buffer at a concentration of 0.4 mg/mL. The ethanolic lipid solution and the aqueous siRNA solution were pumped by means of a syringe pump through a microfluidic mixing chamber to spontaneously form siRNA-containing lipid nanoparticles. Lipids were combined with siRNA at a total lipid to siRNA ratio of 7:1 (wt:wt). These formulations were dialyzed against PBS to remove ethanol and exchange buffer. […]
C57BL/6 mice (Charles River Labs) were used for siRNA silencing experiments. […] After 48 or 72 h, body-weight gain/loss was measured and mice were anaesthetized by isofluorane inhalation for blood sample collection by retroorbital eye bleed. Serum was isolated with serum separation tubes (Falcon tubes, Becton Dickinson) and Factor VII protein levels were analyzed by chromogenic assay (Biophen FVII, Aniara Corporation). A standard curve was constructed using samples from PBS-injected mice and relative Factor VII expression was determined by comparing treated groups to untreated PBS control. […]

Structures are written as SMILES. Entries after “also recorded” stand apart in the source; their conditions may differ.

With `CCCCCCCCCCCCN(CCCCCCCCCCCC)CCCCC1NC(=O)C(CCCCN(CCCCCCCCCCCC)CCCCCCCCCCCC)NC1=O` (centres unmarked) [cKK-A12], in assay [1], the “order of silencing effects” value is “cKK-E12>cKK-A12>cKK-O12”. Further, in assay [1] (without addition of ApoE3, siRNA 50 ng/well), the “luciferase silencing, relative potency” value was “more potent than cKK-E12 and cKK-O12”.
Turning to `CCCCCCCCCCC(O)CN(CCCCC1NC(=O)C(CCCCN(CC(O)CCCCCCCCCC)CC(O)CCCCCCCCCC)NC1=O)CC(O)CCCCCCCCCC` (centres unmarked) [cKK-E12], the “Factor VII silencing, relative potency” value in assay [2] (lower dose of 0.1 mg/kg, 0.1 mg/kg) was “lead compound; also recorded: most potent material”; in assay [2] (siRNA formulation, systemic administration, dose of 1 mg/kg), “more potent than aldehyde and acrylate derivatives”. Further, the “order of silencing effects” value in assay [1] is given as “cKK-E12>cKK-A12>cKK-O12”.
